Laboratory results: publication PMC9019904, “AD Informer Set: Chemical tools to facilitate Alzheimer's disease drug discovery” (Alzheimer's & Dementia : Translational Research & Clinical …, 2022)
≈ marks a conversion by molar mass, not a printed value.

Columns and labels:
[1] = tested on: BV2 (mouse microglia) cell line; assay: pHrodo-myelin phagocytosis/cell viability high content imaging assay: phagocytosis signal; format: cell-based; details: BV2 cells, 10 μM
In short: (§1)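 High content imaging, roughly 22 hours post pHrodo-myelin addition, recorded phagocytosis signal alongside viability in microglial lines BV2 (mouse) and HMC3 (human). Apoptosis tracked through intensity rise (early) and fall (later) among three extracted measurements.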

[2] = Kinetic solubility in aqueous buffer pH 7.4 by total chemiluminescent nitrogen determination (Analiza); details: aqueous buffer, pH 7.4, aqueous buffer, kinetic from dmso stock
cellular system = details: published cellular activity at 10 μM; cited from earlier work
[3] = tested on: HMC3 (human microglia) cell line; assay: pHrodo-myelin phagocytosis/cell viability high content imaging assay: phagocytosis signal; format: cell-based; details: HMC3 cells, 10 μM
In short: as §1

[4] = tested on: BV2 (mouse microglia) cell line; assay: pHrodo-myelin phagocytosis/cell viability high content imaging assay: viability (cell count, nuclear area, nuclear intensity); details: BV2 cells, 10 μM, cell count <70% control
In short: (§2)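 Duplicate single-point screen at 10 μM over 48 h, combined with pHrodo-myelin phagocytosis during the last 20 h. Cytotoxicity is taken from imaged cell counts and nuclear intensity changes, normalized to untreated wells as % control.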

[5] = tested on: HMC3 (human microglia) cell line; assay: as above; details: HMC3 cells, 10 μM, cell count <70% control
In short: as §2

Structure (SMILES) | solubility kinetic [2] | Stimulation of mouse microglial phagocytosis at 10 μM (>150% control) [1] | Reported as cell active (<10 μM) (cellular system) | Inhibition of human microglial phagocytosis at 10 μM (<70% control) [3] | Inhibition of mouse microglial phagocytosis at 10 μM (<70% control) [1] | Mouse microglial cytotoxicity at 10 μM (<70% control) [4] | Stimulation of human microglial phagocytosis at 10 μM (>150% control) [3] | Human microglial cytotoxicity at 10 μM (<70% control) [5]
Nc1ncnc2c1nc(Br)n2[C@@H]1O[C@@H]2COP(=O)([O-])O[C@H]2[C@H]1O.[Na+] [8-Bromo-cAMP (sodium salt)] | 166 µM | Y (The compound was found to stimulate phagocytosis (response threshold: >150% control) when murine immortalized microglial cells were dosed at 10 μM (Y: yes)) | Y (Published data supports that the compound is active in a cellular system when dosed at 10 μM (Y/N)) | – | – | – | – | –
COC(=O)C1=C(C)NC2=C(C(=O)c3ccccc32)C1c1ccccc1OCc1ccccc1F (centres unmarked) [5408-1697] | < 2.1 µM | Y (The compound was found to stimulate phagocytosis (response threshold: >150% control) when murine immortalized microglial cells were dosed at 10 μM (Y: yes)) | Y (Published data supports that the compound is active in a cellular system when dosed at 10 μM (Y/N)) | Y (The compound was found to inhibit phagocytosis (response threshold: <70% control) when human immortalized microglial cells were dosed at 10 μM (Y: yes)) | – | – | – | –
O=C(Nc1c[nH]nc1-c1nc2ccc(CN3CCOCC3)cc2[nH]1)NC1CC1 [AT9283] | 144 µM (≈ 55.1 µg/mL) | – | Y (Published data supports that the compound is active in a cellular system when dosed at 10 μM (Y/N)) | Y (The compound was found to inhibit phagocytosis (response threshold: <70% control) when human immortalized microglial cells were dosed at 10 μM (Y: yes)) | Y (The compound was found to inhibit phagocytosis (response threshold: <70% control) when murine immortalized microglial cells were dosed at 10 μM (Y: yes)) | Y (The compound was found to be cytotoxic (cell count threshold: <70% control) when murine immortalized microglial cells were dosed at 10 μM (Y: yes)) | – | –
CC(C)CCN1c2nc(Nc3cc(F)c(O)c(F)c3)ncc2N(C)C(=O)C1C (centres unmarked) [BI-D1870] | 0.8 µM (≈ 0.313 µg/mL) | – | Y (Published data supports that the compound is active in a cellular system when dosed at 10 μM (Y/N)) | – | – | Y (The compound was found to be cytotoxic (cell count threshold: <70% control) when murine immortalized microglial cells were dosed at 10 μM (Y: yes)) | Y (The compound was found to stimulate phagocytosis (response threshold: >150% control) when human immortalized microglial cells were dosed at 10 μM (Y: yes)) | Y (The compound was found to be cytotoxic (cell count threshold: <70% control) when human immortalized microglial cells were dosed at 10 μM (Y: yes))
CCCc1cc(-c2nc(-c3ccc(C)cc3)cs2)ccn1 [Fatostatin] | < 1.1 µM | Y (The compound was found to stimulate phagocytosis (response threshold: >150% control) when murine immortalized microglial cells were dosed at 10 μM (Y: yes)) | Y (Published data supports that the compound is active in a cellular system when dosed at 10 μM (Y/N)) | – | – | Y (The compound was found to be cytotoxic (cell count threshold: <70% control) when murine immortalized microglial cells were dosed at 10 μM (Y: yes)) | – | –
CCOC(=O)c1cccc(CNc2ccc(N(C)C(=O)Nc3ccccc3)cc2)c1 [GN6958 (Compound 8)] | 3.7 µM (≈ 1.49 µg/mL) | Y (The compound was found to stimulate phagocytosis (response threshold: >150% control) when murine immortalized microglial cells were dosed at 10 μM (Y: yes)) | Y (Published data supports that the compound is active in a cellular system when dosed at 10 μM (Y/N)) | – | – | – | – | –
CCCCCCOc1cc2c(cc1N(C)c1ncc(C(=O)O)cn1)C(C)(C)CCC2(C)C [PA 452] | 13.9 µM (≈ 6.11 µg/mL) | Y (The compound was found to stimulate phagocytosis (response threshold: >150% control) when murine immortalized microglial cells were dosed at 10 μM (Y: yes)) | Y (Published data supports that the compound is active in a cellular system when dosed at 10 μM (Y/N)) | Y (The compound was found to inhibit phagocytosis (response threshold: <70% control) when human immortalized microglial cells were dosed at 10 μM (Y: yes)) | – | – | – | –
CC(=O)c1nc([C@@H](O)[C@H](O)[C@H](O)CO)c[nH]1 [THI] | 186 µM (≈ 42.8 µg/mL) | Y (The compound was found to stimulate phagocytosis (response threshold: >150% control) when murine immortalized microglial cells were dosed at 10 μM (Y: yes)) | Y (Published data supports that the compound is active in a cellular system when dosed at 10 μM (Y/N)) | – | – | – | – | –
N[C@@H](CC(=O)Nc1ccc(Oc2cc(F)c(F)cc2Br)cc1)C(=O)O [WAY 213613] | 148 µM (≈ 61.5 µg/mL) | Y (The compound was found to stimulate phagocytosis (response threshold: >150% control) when murine immortalized microglial cells were dosed at 10 μM (Y: yes)) | Y (Published data supports that the compound is active in a cellular system when dosed at 10 μM (Y/N)) | – | – | Y (The compound was found to be cytotoxic (cell count threshold: <70% control) when murine immortalized microglial cells were dosed at 10 μM (Y: yes)) | – | –
Nc1ncnc2c1nc(Sc1ccc(Cl)cc1)n2[C@@H]1O[C@@H]2COP(=O)([O-])O[C@H]2[C@H]1O.[Na+] [pCPT-cAMP] | 135 µM | – | Y (Published data supports that the compound is active in a cellular system when dosed at 10 μM (Y/N)) | – | – | – | – | –
CCc1ccc(S(=O)(=O)c2ccccc2)cc1S(=O)(=O)NCCCN(C)C [sFRP-1 Inhibitor] | 164 µM (≈ 67.2 µg/mL) | Y (The compound was found to stimulate phagocytosis (response threshold: >150% control) when murine immortalized microglial cells were dosed at 10 μM (Y: yes)) | Y (Published data supports that the compound is active in a cellular system when dosed at 10 μM (Y/N)) | – | – | – | – | –

Now from value to molecule, other results behind:

solubility kinetic [2] | Structure (SMILES) | Stimulation of mouse microglial phagocytosis at 10 μM (>150% control) [1] | Reported as cell active (<10 μM) (cellular system) | Inhibition of human microglial phagocytosis at 10 μM (<70% control) [3] | Inhibition of mouse microglial phagocytosis at 10 μM (<70% control) [1] | Mouse microglial cytotoxicity at 10 μM (<70% control) [4] | Stimulation of human microglial phagocytosis at 10 μM (>150% control) [3] | Human microglial cytotoxicity at 10 μM (<70% control) [5]
< 1.1 µM | CCOC(=O)CS(=O)(=O)c1ccc([C@@H](CO)NC(=O)c2cc3c(Cl)c(Cl)c(C)cc3n2C)cc1 [BI-4916] | Y (The compound was found to stimulate phagocytosis (response threshold: >150% control) when murine immortalized microglial cells were dosed at 10 μM (Y: yes)) | Y (Published data supports that the compound is active in a cellular system when dosed at 10 μM (Y/N)) | Y (The compound was found to inhibit phagocytosis (response threshold: <70% control) when human immortalized microglial cells were dosed at 10 μM (Y: yes)) | – | Y (The compound was found to be cytotoxic (cell count threshold: <70% control) when murine immortalized microglial cells were dosed at 10 μM (Y: yes)) | – | –
2.8 µM (≈ 0.942 µg/mL) | CCOC(=O)c1sc(NC(=O)c2ccco2)c(SC#N)c1C [CBR-5884] | Y (The compound was found to stimulate phagocytosis (response threshold: >150% control) when murine immortalized microglial cells were dosed at 10 μM (Y: yes)) | N (tested/active at 15 μM) | Y (The compound was found to inhibit phagocytosis (response threshold: <70% control) when human immortalized microglial cells were dosed at 10 μM (Y: yes)) | – | Y (The compound was found to be cytotoxic (cell count threshold: <70% control) when murine immortalized microglial cells were dosed at 10 μM (Y: yes)) | – | –
< 0.7 µM | CN1c2ccc([N+](=O)[O-])cc2N=C(c2ccc(C(=O)O)cc2)c2cc3c(cc21)C(C)(C)CCC3(C)C [HX531] | – | Y (Published data supports that the compound is active in a cellular system when dosed at 10 μM (Y/N)) | – | – | Y (The compound was found to be cytotoxic (cell count threshold: <70% control) when murine immortalized microglial cells were dosed at 10 μM (Y: yes)) | – | –
3.7 µM (≈ 1.36 µg/mL) | Oc1c(F)cc(-c2cnccc2-c2ccc(N3CCOCC3)cc2)cc1F [LJI308] | Y (The compound was found to stimulate phagocytosis (response threshold: >150% control) when murine immortalized microglial cells were dosed at 10 μM (Y: yes)) | Y (Published data supports that the compound is active in a cellular system when dosed at 10 μM (Y/N)) | – | – | – | – | –
2.6 µM (≈ 1.03 µg/mL) | Cc1cc(C)nc(NC(=S)N2CCN(c3ccc(C(F)(F)F)cn3)CC2)c1 [NCT-502] | Y (The compound was found to stimulate phagocytosis (response threshold: >150% control) when murine immortalized microglial cells were dosed at 10 μM (Y: yes)) | Y (Published data supports that the compound is active in a cellular system when dosed at 10 μM (Y/N)) | – | – | – | – | –
34.3 µM (≈ 14 µg/mL) | Cc1cc(C)nc(NC(=S)N2CCN(Cc3ccc(C(F)(F)F)cc3)CC2)c1 [NCT-503] | Y (The compound was found to stimulate phagocytosis (response threshold: >150% control) when murine immortalized microglial cells were dosed at 10 μM (Y: yes)) | Y (Published data supports that the compound is active in a cellular system when dosed at 10 μM (Y/N)) | – | – | – | – | –
